Molecules are shown by their SMILES.

In data set [1] the test system is Erysiphe graminis f. sp. tritici. The data set is described as follows: Powdery Mildew of Wheat (ERYSGT), whole-plant fungicide test. The data set is classed as in vivo. Conditions: Blumeria graminis, foliar, 24 h, 200 ppm on foliage, one-day protectant test, read-out: ERYSGT percent control of disease.
The test system of data set [2] is Colletotricum lagenarium. The data set is described as follows: Cucumber Anthracnose (COLLLA), whole-plant fungicide test. The note with it: Cucumis sativus, foliar, 24 h, 200 ppm on foliage, one-day protectant test, read-out: COLLLA percent control of disease. Type of data set: in vivo.
For data set [3], the system named is Cochliobolus sativus. The data set is described as follows: Spot Blotch of Wheat (COCHSA), whole-plant fungicide test. The data set is classed as in vivo. The note with it: Bipolaris sorokiniana, foliar, 24 h, 200 ppm on foliage, one-day protectant test, read-out: COCHSA percent control of disease. Summed up: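 Percent control is derived from disease severity relative to untreated inoculated plants, scored 4–28 days later. Spore inoculation followed foliar spraying by one day (protectant) or preceded it by two days (curative); plants kept humid 1-2 days before greenhouse. Spray dose was 200 ppm, occasionally 100, 75 or 8.3 ppm, in acetone/Triton X100 water.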

The subject of data set [4] is Leptosphaeria nodorum. The data set can be described thus: Glume Blotch of Wheat (LEPTNO), whole-plant fungicide test. The note with it: Parastagonospora nodorum, foliar, 24 h, 200 ppm on foliage, one-day protectant test, read-out: LEPTNO percent control of disease. Type of data set: in vivo.
Data set [5] relates to Puccinia recondita tritici. The data set is described as follows: Leaf Rust of Wheat (PUCCRT), whole-plant fungicide test. Type of data set: in vivo. The note with it: 200 ppm on foliage, one-day protectant test; for pest or weed control at 200 ppm: Puccinia recondita, foliar, 24 h, read-out: PUCCRT percent control of disease.
Data set [6] deals with Magnaporthe grisea. The data set can be described thus: whole plant or invertebrate. The data set is classed as in vivo. The note with it: for pest or weed control at 200 ppm: Pyricularia oryzae, in Oryza sativa, foliar, 24 h, read-out: PYRIOR percent control of disease, 200 ppm on foliage, rice, one-day protectant test.
For data set [7], the system named is Septoria tritici. The data set is described as follows: Speckled Leaf Blotch of Wheat (SEPTTR), whole-plant fungicide test. Type of data set: in vivo. Conditions: Zymoseptoria tritici, foliar, 24 h, 200 ppm on foliage, one-day protectant test, read-out: SEPTTR percent control of disease.
For data set [8], the system named is Phytophthora infestans. The data set is described as follows: whole plant or invertebrate. The data set is classed as in vivo. Conditions: Phytophthora infestans, in Solanum lycopersicum, foliar, 24 h, read-out: PHYTIN percent control of disease, 200 ppm on foliage, tomato, one-day protectant test.
Data set [9] has as its system Erysiphe cichoracaerum. The data set can be described thus: Cucumber Powdery Mildew (ERYSCI), whole-plant fungicide test. The data set is classed as in vivo. The note with it: 200 ppm on foliage, one-day protectant test; for pest or weed control at 200 ppm: Erysiphe, foliar, 24 h, read-out: ERYSCI percent control of disease.

With `OCC(Nc1ncnc2scc(Cl)c12)c1ccccc1` (centres unmarked) [Compound 30], the melting point was determined as 120 °C. In data set [1], the pest or weed control at 200 ppm lay in the range of 0 to 49%. Also, the pest or weed control at 200 ppm in [2] fell in the range of 0 to 49%. Besides, the pest or weed control at 200 ppm in data set [3] was 0 to 49%. Besides, the pest or weed control at 200 ppm in data set [4] fell in the range of 0 to 49%. Further, the “PUCCRT percent control of disease” value in data set [5] is reported as “*** (*** is 80-100 percent control of disease)”. Further, the “PYRIOR percent control of disease” value in data set [6] (200 ppm on foliage, rice, one-day protectant test) is on record as “*** (*** is 80-100 percent control of disease)”. Moreover, the pest or weed control at 200 ppm in data set [7] was 0 to 49%. The pest or weed control at 200 ppm in [8] lay in the range of 0 to 49%. Also, the “ERYSCI percent control of disease” value in data set [9] was “*** (*** is 80-100 percent control of disease)”.

`OCC(Cc1ccccc1)Nc1ncnc2scc(Cl)c12` (centres unmarked) [Compound 31]: the melting point is 104 to 105 °C. Also, the pest or weed control at 200 ppm in [1] lay in the range of 0 to 49%. Besides, the pest or weed control at 200 ppm in data set [2] was in the range of 0 to 49%. Moreover, the pest or weed control at 200 ppm in data set [3] is 0 to 49%. Moreover, the pest or weed control at 200 ppm in data set [4] is 0 to 49%. Besides, in data set [5], the pest or weed control at 200 ppm lay within 80 to 100%. Moreover, the pest or weed control at 200 ppm in data set [6] was in the range of 80 to 100%. Besides, the pest or weed control at 200 ppm in data set [7] was in the range of 0 to 49%. Besides, the pest or weed control at 200 ppm in data set [8] fell in the range of 80 to 100%. Besides, the pest or weed control at 200 ppm in data set [9] lay in the range of 80 to 100%.

In turn, `O[C@@H](CNc1ncnc2scc(Cl)c12)c1ccccc1` [Compound 32] gave a melting point of 111 to 112 °C. Further, the pest or weed control at 200 ppm in data set [1] lay within 0 to 49%. The pest or weed control at 200 ppm in data set [2] lay in the range of 0 to 49%. For the same molecule, the pest or weed control at 200 ppm in [3] was 0 to 49%. For the same molecule, in data set [4], the pest or weed control at 200 ppm was in the range of 0 to 49%. Besides, in data set [5], the pest or weed control at 200 ppm fell in the range of 80 to 100%. Besides, the pest or weed control at 200 ppm in data set [6] was in the range of 80 to 100%. Besides, the pest or weed control at 200 ppm in [7] lay in the range of 0 to 49%. For the same molecule, in [8], the pest or weed control at 200 ppm fell in the range of 0 to 49%. Also, in data set [9], the pest or weed control at 200 ppm lay in the range of 0 to 49%.

Regarding `CC(Nc1ncnc2scc(Cl)c12)c1ccc(C(F)(F)F)nc1` (centres unmarked) [Compound 44], the pest or weed control at 200 ppm fell in the range of 0 to 49% in data set [1]; 0 to 49% in data set [2]; 50 to 79% in data set [3]; 50 to 79% in data set [4]; 80 to 100% in [5]; 80 to 100% in data set [6]. Also, the pest or weed control at 200 ppm in data set [7] is 0 to 49%; in data set [8], 50 to 79%; in data set [9] it was 80 to 100%.

With `COc1ccc(C(C)Nc2ncnc3scc(Br)c23)cn1` (centres unmarked) [Compound 45, (5-Bromothieno[2,3-d]pyrimidin-4-yl)-[1-(2-methoxypyridin-5-yl)ethyl]amine], the pest or weed control at 200 ppm lay in the range of 80 to 100% in data set [1]; 0 to 49% in [2]; 0 to 49% in [3]; 50 to 79% in data set [4]; 80 to 100% in data set [5]; 80 to 100% in data set [6]. For the same molecule, the pest or weed control at 200 ppm in data set [7] lay in the range of 50 to 79%; in data set [8] it was 80 to 100%; in data set [9] it was 80 to 100%.

Molecule `CCOC(=O)c1sc2ncnc(NC(C)c3ccc(OC)cc3)c2c1O` (centres unmarked) [Compound 52, 5-Hydroxy-4-[1-(4-methoxyphenyl)ethylamino]thieno[2,3-d]pyrimidine-6-carboxylic Acid Ethyl Ester] displayed a melting point of 151 to 152 °C. Moreover, the pest or weed control at 200 ppm in [2] lay in the range of 0 to 49%. Further, the pest or weed control at 200 ppm in [3] was 0 to 49%. Further, the pest or weed control at 200 ppm in data set [4] fell in the range of 0 to 49%. Also, the pest or weed control at 200 ppm in data set [5] is 0 to 49%. Further, the pest or weed control at 200 ppm in data set [6] lay within 0 to 49%. In addition, the pest or weed control at 200 ppm in data set [7] fell in the range of 50 to 79%. Also, in data set [8], the pest or weed control at 200 ppm fell in the range of 0 to 49%.

By melting point is commonly meant the temperature of the solid-liquid transition.

The values are drawn from patent publication US8008487B2, “Substituted thieno[2,3-D]pyrimidines as fungicides” (priority 2004, dated 2011).
